# According to patent US20250326741A1, “GLUCOSE-DEPENDENT INSULINOTROPIC POLYPEPTIDE RECEPTOR ANTAGONISTS AND USES THEREOF” (Pfizer Inc., priority 2024, published 2025):
# Biological target: T1, human Glucose-dependent Insulinotropic Polypeptide Receptor (hGIPR) (Homo sapiens, UniProt P48546)
# T1 sequence (P48546 22-466): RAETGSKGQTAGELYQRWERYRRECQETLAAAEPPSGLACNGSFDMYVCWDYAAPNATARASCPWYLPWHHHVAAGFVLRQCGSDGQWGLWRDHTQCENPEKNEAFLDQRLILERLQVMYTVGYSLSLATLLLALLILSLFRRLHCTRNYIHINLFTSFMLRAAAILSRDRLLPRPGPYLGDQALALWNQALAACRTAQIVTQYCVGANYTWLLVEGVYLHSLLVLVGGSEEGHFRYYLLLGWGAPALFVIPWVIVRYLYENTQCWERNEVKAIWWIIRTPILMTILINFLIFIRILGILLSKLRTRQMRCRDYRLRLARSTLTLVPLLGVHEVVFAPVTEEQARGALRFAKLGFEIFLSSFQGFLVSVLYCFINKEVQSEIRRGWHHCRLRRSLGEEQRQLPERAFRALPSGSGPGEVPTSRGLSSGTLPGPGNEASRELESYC
# Assay: Functional in vitro GIPR antagonist potency assay (intracellular cAMP, HTRF, hGIP stimulation at EC80)
# Format: cell-based
# Settings: geometric mean; CHO-K1 cells stably expressing human GIPR, cAMP after hGIP stimulation at EC80
# Method: Example AA. Functional In Vitro GIPR Antagonist Potency Assay
# The functional in vitro antagonist potency for test compounds was determined by monitoring intracellular cyclic adenosine monophosphate (cAMP) levels in Chinese hamster ovary (CHO)—K1 cells stably expressing the human Glucose-dependent Insulinotropic Polypeptide Receptor (hGIPR). Following agonist activation, hGIPR associates with the G-protein complex causing the Gas subunit to exchange bound guanosine diphosphate (GDP) for guanosine triphosphate (GTP), followed by dissociation of the Gas-GTP complex. The activated Gas subunit can couple to downstream effectors to regulate the levels of second messengers or cAMP within the cell. Thereby, determination of intracellular cAMP levels allows for pharmacological characterization. Intracellular cAMP levels are quantitated using a homogenous assay utilizing the Homogeneous Time Resolved Fluorescence (HTRF) technology from Perkin Elmer. The method is a competitive immunoassay between native cAMP produced by the cells and cAMP labelled with the acceptor dye, d2. The two entities compete for binding to a monoclonal anti-cAMP antibody labeled with cryptate. The specific signal is inversely proportional to the concentration of cAMP in the cells.
# Test compounds were solubilized to a concentration of 30 mM in 100% dimethyl sulfoxide (DMSO). An 11-point dilution series using 1 in 3.162-fold serial dilutions was created in 100% DMSO with a top concentration of 8 mM. The serially diluted compound was spotted with an Echo Acoustic liquid handler (Beckman Coulter) into a 384-well assay plate (Corning, Cat No. 3824) at 50 nL/well with duplicate points at each concentration, at a 200× final assay concentration (FAC). The final compound concentration range in the assay was 40 μM to […], with a final DMSO concentration of 0.5%.
# Frozen assay-ready vials (at 1×10^7 cells/vial) of CHO-K1 cells stably expressing the Gs-coupled human GIPR receptor (Eurofins, DiscoverX, Cat No. 95-0146C2) were thawed, counted, and resuspended in assay buffer consisting of Hank's Balanced Salt Solution (HBSS, Lonza Cat No. 10-527) containing 20 mM (4-(2-hydroxyethyl)-1-piperazineethanesulfonic acid (HEPES, Lonza, Cat No. 17-737E), 0.1% bovine serum albumin (BSA, Sigma, Cat No. A7979), and 200 μM 3-isobutyl-1-methylxanthine (IBMX, Sigma, Cat No. 15879) at a density of 4×10^5 cells/mL. Cells were added to assay plate (5 μL/well of 4×10^5 cells/mL stock for 2,000 cells/well final) containing 50 nL of 200×FAC test compound, and incubated at 37° C. (95% O2: 5% CO2) for 2 hours, with micro-clime lids (Labcyte, Cat No. LLS-0310). Following the 2-hour cell and compound incubation, a stimulation mix comprised of hGIPR agonist human glucose-dependent insulinotropic polypeptide (hGIP, full length, Sigma Cat No. G2269) in assay buffer/0.1% DMSO was added to the assay plate (5 μL/well) at an estimated EC80 FAC (based on previous hGIP agonist curves) and incubated for another 30 minutes with micro-clime lids at 37° C. (95% O2: 5% CO2), after which intracellular cAMP levels were quantified as per Perkin Elmer's protocol (5 μL of d2 and then 5 μL cryptate, incubated for 1 hour at room temperature). Emission spectra of samples were measured on a Pherastar plate reader (BMG Labtech Inc) using a HTRF protocol (excitation, 320 nm; emission, 665 nm/620 nm).
# (95% O2: 5% CO2), with a micro-clime lid. Following the 2-hour cell and DMSO incubation, a hGIP concentration response curve at 2×FAC (12-point curve using 1 in 3 serial dilutions, with triplicate points at each concentration, 100 nM final top concentration) in assay buffer/1% DMSO was added (5 μL/well) and incubated for a further 30 minutes with a micro-clime lid at 37° C. (95% O2: 5% CO2), after which intracellular cAMP levels were quantified and samples measured as described previously. Experiments passed quality control if the agonist concentration used for stimulation fell between the on-the-day EC50-EC90. […]
row,Compound,IC50 [nM]
1,"Cc1cc(-n2ccc(NC(=O)[C@H]3CCCN3C(=O)Nc3ccc(Cl)c(Cl)c3)n2)ccc1C(=O)O [Example 37, 4-[3-({1-[(3,4-dichlorophenyl)carbamoyl]-D-prolyl}amino)-1H-pyrazol-1-yl]-2-methylbenzoic acid]",94
2,Cc1cc(-n2ccc(NC(=O)[C@H]3CCCN3C(=O)Nc3ccc(C(F)(F)F)cc3)n2)ccc1C(N)=O [Example 49],240
3,"Cc1cc(C(=O)O)ccc1-n1ccc(NC(=O)[C@H]2CCCN2C(=O)Nc2ccc(C(C)C)cc2)n1 [Example 25, 3-methyl-4-{3-[(1-{[4-(propan-2-yl)phenyl]carbamoyl}-D-prolyl)amino]-1H-pyrazol-1-yl}benzoic acid]",98
4,CC(C)c1ccc(NC(=O)N2CCC[C@@H]2C(=O)Nc2ccn(-c3cc(F)c(O)c(F)c3)n2)cc1 [Example 43],5.3
5,"Cc1c(C(=O)O)ccc(-n2ccc(NC(=O)[C@H]3CCCN3C(=O)Nc3ccc(C(F)(F)F)cc3)n2)c1F [Example 66, 3-fluoro-2-methyl-4-{3-[(1-{[4-(trifluoromethyl)phenyl]carbamoyl}-D-prolyl)amino]-1H-pyrazol-1-yl}benzoic acid]",54
6,"CC(C)c1ccc(NC(=O)N2CCC[C@@H]2C(=O)Nc2ccn(-c3ccc(C(=O)O)cc3F)n2)cc1F [Example 34, 3-fluoro-4-{3-[(1-{[3-fluoro-4-(propan-2-yl)phenyl]carbamoyl}-D-prolyl)amino]-1H-pyrazol-1-yl}benzoic acid]",15
7,CC(C)c1ccc(NC(=O)N2CCC[C@@H]2C(=O)Nc2ccn(-c3ccc(C(N)=O)cc3)n2)cc1 [Example 35],120
8,"Cc1cc(-n2ccc(NC(=O)[C@H]3CCCN3C(=O)Nc3ccc(C(C)C)cc3)n2)ccc1C(=O)O [Example 29, 2-methyl-4-{3-[(1-{[4-(propan-2-yl)phenyl]carbamoyl}-D-prolyl)amino]-1H-pyrazol-1-yl}benzoic acid]",13
9,"Cc1cc(-n2ccc(NC(=O)[C@H]3CCCN3C(=O)CNc3ccc(C(F)(F)F)cc3)n2)ccc1C(=O)O [Example 19, N-[4-(Trifluoromethyl)phenyl]glycyl-N-[1-(4-carboxy-3-methylphenyl)-1H-pyrazol-3-yl]-D-prolinamide]",78
10,"Cc1cc(-n2ccc(NC(=O)[C@H]3CCCN3C(=O)Nc3ccc(C4CCC4)cc3)n2)ccc1C(=O)O [Example 42, 4-[3-({1-[(4-cyclobutylphenyl)carbamoyl]-D-prolyl}amino)-1H-pyrazol-1-yl]-2-methylbenzoic acid]",12
11,"Cc1cc(NC(=O)N2CCC[C@@H]2C(=O)Nc2ccn(-c3ccc(C(=O)O)cc3)n2)ccc1C(C)C [Example 26, 4-{3-[(1-{[3-methyl-4-(propan-2-yl)phenyl]carbamoyl}-D-prolyl)amino]-1H-pyrazol-1-yl}benzoic acid]",64
12,"Cc1cc(-n2ccc(NC(=O)[C@H]3CCCN3C(=O)Nc3cc(F)c(C(F)(F)F)c(F)c3)n2)ccc1C(=O)O [Example 51, 4-{3-[(1-{[3,5-difluoro-4-(trifluoromethyl)phenyl]carbamoyl}-D-prolyl)amino]-1H-pyrazol-1-yl}-2-methylbenzoic acid]",35
13,"CC(C)c1ccc(NC(=O)N2CCC[C@@H]2C(=O)Nc2ccn(-c3cc(F)c(O)c(F)c3)n2)cc1F [Example 14, (2R)—N^2-[1-(3,5-Difluoro-4-hydroxyphenyl)-1H-pyrazol-3-yl]-N^1-[3-fluoro-4-(propan-2-yl)phenyl]pyrrolidine-1,2-dicarboxamide]",7.2

# Continued by falling IC50, values first:
row,IC50 [nM],Compound
1,450,"Cc1cc(-n2ccc(NC(=O)[C@H]3CCCN3C(=O)CNc3ccc(C(F)(F)F)cc3)n2)ccc1C(N)=O [Example 61, N-[4-(trifluoromethyl)phenyl]glycyl-N-[1-(4-carbamoyl-3-methylphenyl)-1H-pyrazol-3-yl]-D-prolinamide]"
2,280,"CC(C)c1ccc(NC(=O)N2CCC[C@@H]2C(=O)Nc2ccn(-c3ccc(C(=O)O)c(F)c3)n2)cc1 [Example 32, 2-fluoro-4-{3-[(1-{[4-(propan-2-yl)phenyl]carbamoyl}-D-prolyl)amino]-1H-pyrazol-1-yl}benzoic acid]"
3,150,"Cc1cc(-n2ccc(NC(=O)[C@H]3CCCN3C(=O)NCc3ccc(C(F)(F)F)cc3)n2)ccc1C(=O)O [Example 40, 2-methyl-4-(3-{[1-{{[4-(trifluoromethyl)phenyl]methyl}carbamoyl)-D-prolyl]amino}-1H-pyrazol-1-yl)benzoic acid]"
4,120,CC(C)c1ccc(NC(=O)N2CCC[C@@H]2C(=O)Nc2ccn(-c3ccc(C(N)=O)cc3)n2)cc1F [Example 57]
5,90,"O=C(O)c1ccc(-n2ccc(NC(=O)[C@H]3CCCN3C(=O)NCc3ccc(OC(F)(F)F)cc3)n2)cc1 [Example 33, 4-(3-{[1-{{[4-(trifluoromethoxy)phenyl]methyl}carbamoyl)-D-prolyl]amino}-1H-pyrazol-1-yl)benzoic acid]"
6,61,"Cc1cc(-n2ccc(NC(=O)[C@H]3CCCN3C(=O)NCc3ccc(OC(F)(F)F)cc3)n2)ccc1C(=O)O [Example 8, 2-Methyl-4-(3-{[1-({[4-(trifluoromethoxy)phenyl]methyl}carbamoyl)-D-prolyl]amino}-1H-pyrazol-1-yl)benzoic Acid]"
7,42,CC(C)c1ccc(NC(=O)N2CCC[C@@H]2C(=O)Nc2ccn(-c3ccc(C(N)=O)cc3F)n2)cc1 [Example 36]
8,13,"Cc1cc(-n2ccc(NC(=O)[C@H]3CCCN3C(=O)Nc3ccc(C(F)(F)F)c(Cl)c3)n2)ccc1C(=O)O [Example 52, 4-{3-[(1-{[3-chloro-4-(trifluoromethyl)phenyl]carbamoyl}-D-prolyl)amino]-1H-pyrazol-1-yl}-2-methylbenzoic acid]"
9,12,O=C(Nc1ccn(-c2cc(F)c(O)c(F)c2)n1)[C@H]1CCCN1C(=O)Nc1ccc(C(F)(F)F)cc1 [Example 54]
10,11,"Cc1cc(-n2ccc(NC(=O)[C@H]3CCCN3C(=O)Nc3ccc(OC(F)(F)F)cc3)n2)c(F)cc1C(=O)O [Example 59, 5-Fluoro-2-methyl-4-{3-[(1-{[4-(trifluoromethoxy)phenyl]carbamoyl}-D-prolyl)amino]-1H-pyrazol-1-yl}benzoic Acid]"
11,7.6,"Cc1c(C(=O)O)ccc(-n2ccc(NC(=O)[C@H]3CCCN3C(=O)Nc3ccc(OC(F)(F)F)cc3)n2)c1F [Example 62, 3-fluoro-2-methyl-4-{3-[(1-{[4-(trifluoromethoxy)phenyl]carbamoyl}-D-prolyl)amino]-1H-pyrazol-1-yl}benzoic acid]"
12,3.8,Cc1cc(NC(=O)N2CCC[C@@H]2C(=O)Nc2ccn(-c3cc(F)c(O)c(F)c3)n2)ccc1C(C)C [Example 55]
